Laboratory results: paper PMC9166630, “SAR Probing of KX2-391 Provided Analogues With Juxtaposed Activity Profile Against Major Oncogenic Kinases” (Frontiers in Oncology, 2022)

Molecular target: T1, Tyro3/Sky (Homo sapiens, UniProt Q06418)
T1 construct: endogenous in cells; host or cells: HL60 lysate
T1 sequence (Q06418 41-890): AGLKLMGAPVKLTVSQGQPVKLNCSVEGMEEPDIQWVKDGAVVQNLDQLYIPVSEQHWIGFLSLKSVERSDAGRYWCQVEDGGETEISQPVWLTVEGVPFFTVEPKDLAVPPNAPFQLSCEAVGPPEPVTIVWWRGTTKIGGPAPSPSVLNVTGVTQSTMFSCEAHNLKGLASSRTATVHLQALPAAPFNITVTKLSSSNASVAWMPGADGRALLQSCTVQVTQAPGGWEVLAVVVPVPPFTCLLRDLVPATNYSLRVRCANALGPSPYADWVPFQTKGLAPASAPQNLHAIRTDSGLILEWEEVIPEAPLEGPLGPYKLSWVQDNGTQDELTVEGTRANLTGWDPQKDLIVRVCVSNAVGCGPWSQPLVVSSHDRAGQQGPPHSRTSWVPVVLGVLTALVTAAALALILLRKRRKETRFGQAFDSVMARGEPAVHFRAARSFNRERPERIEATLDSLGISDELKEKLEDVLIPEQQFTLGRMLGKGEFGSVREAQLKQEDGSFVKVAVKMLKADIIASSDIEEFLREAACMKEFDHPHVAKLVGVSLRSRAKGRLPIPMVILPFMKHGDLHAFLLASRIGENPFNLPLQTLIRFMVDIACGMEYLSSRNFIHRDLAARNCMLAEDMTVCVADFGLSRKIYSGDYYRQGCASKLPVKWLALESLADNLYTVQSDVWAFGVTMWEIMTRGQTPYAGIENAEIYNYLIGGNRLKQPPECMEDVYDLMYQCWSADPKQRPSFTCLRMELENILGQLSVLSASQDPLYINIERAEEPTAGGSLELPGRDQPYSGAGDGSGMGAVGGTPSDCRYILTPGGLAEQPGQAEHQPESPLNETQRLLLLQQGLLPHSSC
Assay: PamChip tyrosine kinase microarray, Tyro3/Sky
Type: biochemical
Details: 4e 0.1 µM, HL60 lysate
Method: The changes in kinase activities induced by treatment with 4e were monitored within the HL60 cell lines using PamGene’s (Hertogenbosch, Netherlands) PamChip® peptide microarray profiler, which quantifies the activities of 144 tyrosine kinases (YK) ([29], [30]) (Figure 7). Results are provided as a log fold change (LFC) heatmap and Mean Kinase Statistic. From the LFC it is apparent that compound 4e, at a concentration of 0.1 µM, induced sizable changes to the activity of several kinases within the cell signaling YK profile (Figure 7A).
An Upstream Kinase tool was used to generate a putative list of kinases responsible for phosphorylating the phospho-sites on the PamChip (Figure 7B) ([31]). It is an interpretation and is highly dependent on the contents of the underlying phosphorylation databases. A Kinase Score was used for ranking kinases based on their significance and specificity in terms of the set of peptides used for the corresponding kinase. Kinase Statistics indicates the overall change of the peptide set that represents the kinase. Kinase statistics value <0 indicates lower kinase activity in the compound spiked lysate and vice versa ([32], [33]). Table 5 lists the 20 most changed kinases within treated HL60 cell lysates by 0.1 μM 4e, ranked according to their Kinase Score.
The compound 4e was spiked into HL60 cell lysate at different concentrations (0.001, 0.01, 0.1, 1, 10 and 50 μM). In addition, DMSO was also spiked in HL60 lysate at low concentration (2% v/v) as control. Samples were profiled on PamGene’s Tyrosine Kinase (PTK) arrays in technical replicates, covering a total of 196 phosphorylation sites. Frozen HL60 cultured cell pellet was sent to PamGene. At PamGene, cells were lysed using a lysis buffer and proteases inhibitors cocktail. Protein concentration was measured using standard Bradford assay as per PamGene SOPs. These lysates were further used for generating the PTK activity profiles. For spiking, 4e was received as powder form and dissolved in DMSO at PamGene facility followed by storing at -20°C in small aliquots. PamGene used its in-house bioinformatics toolbox in combination with other methods to generate hypotheses of signaling pathways.

## O=C(Cc1ccc(NC(=O)c2cccc(Cl)c2)cc1)NCc1ccccc1 [Compound 4e, N-(4-(2-(benzylamino)-2-oxoethyl)phenyl)-3-chlorobenzamide]
  Mean Final Score: 1.8204
  Mean Kinase Statistic: -0.5274
  Mean Significance Score: 1.2459
  Mean Specificity Score: 0.5745
